# Literature values as cited in patent publication US6790849B2, “Methods and compositions using optically pure (-) cetirizine in combination with leukotriene inhibitors or decongestants” (Sepracor Inc., priority 1998, dated 2004).
# Like-named read-outs stand apart in the source and are kept apart here.
# Assays:
# [1] = tested on: allergen- or exercise-induced bronchoconstriction; details: patients, doses as large as 20 mg
# [2] = tested on: leukotriene (LTH4, LTC4, LTD4, and LTE4) formation
# [3] = tested on: LTB4 formation; details: several species
# [4] = tested on: leukotriene-dependent smooth muscle contractions; details: in vitro, guinea pig and human airways
# [5] = for efficacy: 373 patients
# [6] = tested on: LTD4; details: guinea pigs
# [7] = tested on: three leukotrienes in conducting airway smooth muscle; details: in vitro, laboratory animals and humans
# [8] = tested on: LTD4; details: in vivo
# [9] = tested on: LTD4; details: in vivo; remark: listed apart in the source
compound,measurement,setting,value
O=C(O)COCCN1CCN(C(c2ccccc2)c2ccc(Cl)cc2)CC1 (racemic) [cetirizine],preventing allergen- or exercise-induced bronchoconstriction,[1],not uniformly effective
"CC(c1cc2ccccc2s1)N(O)C(N)=O (racemic) [zileuton, (±)-1-(1-Benso[b]thien-2-ylethyl)-1-hydroxyurea]","leukotriene (LTH4, LTC4, LTD4, and LTE4) formation in vitro",[2],inhibit
same,LTB4 formation ex vivo,[3],inhibitor
same,leukotriene-dependent smooth muscle contractions,[4],inhibits
same,efficacy,[5]; 400 mg,failed to do so
same,efficacy,[5]; 600 mg four times daily,required to provide efficacy
same,adverse effects reported in some patients,[5]; some patients,"headache, pain, asthenia, dyspepsia, nausea, and myalgia"
CC(C)(C)c1ccc(C(O)CCCN2CCC(C(O)(c3ccccc3)c3ccccc3)CC2)cc1 (stereo not drawn) [terfenadine],increase in airway resistance caused by LTD4,[6],suppressed
"COc1cc(C(=O)NS(=O)(=O)c2ccccc2C)ccc1Cc1cn(C)c2ccc(NC(=O)OC3CCCC3)cc12 [zafirlukast, 4-(5-cyclopentyloxy-carbonylamino-1-methyl-indol-8-ylmethyl)-3-methoxy-N-o-tolylsulfonylbenzamide]",contractile activity of three leukotrienes in conducting airway smooth muscle,[7],antagonized
same,intradermal LTD4-induced increases in cutaneous vascular permeability,[8],prevented
same,inhaled LTD4-induced influx of eosinophils into animal lungs,[9],inhibited
same,adverse effects reported in some patients,,"headache, infection, nausea, diarrhea, pain, asthenia, abdominal pain, dizziness, myalgia, fever, vomiting, SGPT elevation, and dyspepsia"
